In ChEMBL document CHEMBL1122875, “Orally absorbable cephalosporin antibiotics. 3. Preparation of biologically active R isomer of 7-(3-benzothienylglycylamido)deacetoxycephalosporanic acid” (1985) one finds MIC data, which are given here for four compounds.

Converted amounts (≈) assume the structure as drawn. Bounds are passed on as bounds.

Type in all cases: functional
Assay [1] concerns Staphylococcus aureus. Put plainly: Tested for antibacterial activity against methicillin resistant Staphylococcus aureus S13E.
Another assay deals with Streptococcus. Put plainly: The compound was tested for antibacterial activity against Streptococcus group D X66.
The subject of the next assay is Streptococcus pneumoniae. Put plainly: The compound was tested for antibacterial activity against Streptococcus pneumoniae Park.
Assay [2] relates to Staphylococcus aureus. Put plainly: Tested for antibacterial activity against penicillin G sensitive Staphylococcus aureus X1.1.
The test system of assay [3] is Haemophilus influenzae. Description: The compound was tested for antibacterial activity against resistant Haemophilus influenzae 76.
The test system of a further assay is Streptococcus pyogenes. Description: The compound was tested for antibacterial activity against Streptococcus pyogenes C203.
The subject of assay [4] is Staphylococcus aureus. Description: Tested for antibacterial activity against methicillin resistant Staphylococcus aureus X400.
Assay [5] concerns Haemophilus influenzae. Description: The compound was tested for antibacterial activity against sensitive Haemophilus influenzae C.L.
Assay [6] has as its system Staphylococcus epidermidis. Description: The compound was tested for antibacterial activity against Staphylococcus epidermidis EP11.
Assay [7] has as its system Staphylococcus aureus. Description: Tested for antibacterial activity against penicillin G resistant Staphylococcus aureus V41.

As for `CC1=C(C(=O)O)N2C(=O)C(NC(=O)[C@@H](N)c3csc4ccccc34)C2SC1` (some centres not stated), the MIC with Staphylococcus aureus [1] was 128 µg/mL (≈ 317 µM); in the assay on Streptococcus, greater than 128 µg/mL; against Streptococcus pneumoniae, 16 µg/mL (≈ 39.7 µM); with Staphylococcus aureus [2], 32 µg/mL (≈ 79.3 µM); against Haemophilus influenzae [3], 16 µg/mL (≈ 39.7 µM); with Streptococcus pyogenes, 16 µg/mL (≈ 39.7 µM). This compound also gave an MIC against Staphylococcus aureus [4] greater than 128 µg/mL.
Regarding `CC1=C(C(=O)O)N2C(=O)C(NC(=O)[C@H](N)c3csc4ccccc34)C2SC1` (some centres not stated), the MIC against Haemophilus influenzae [5] was determined as 2 µg/mL (≈ 4.96 µM); in [6] it was 4 µg/mL (≈ 9.91 µM); in the assay on Staphylococcus aureus [1] it was 4 µg/mL (≈ 9.91 µM); with Streptococcus, 128 µg/mL (≈ 317 µM); in the assay with Streptococcus pneumoniae it was 0.5 µg/mL (≈ 1.24 µM); in the assay on Staphylococcus aureus [2], 1 µg/mL (≈ 2.48 µM). Further, the MIC was 4 µg/mL (≈ 9.91 µM) against Staphylococcus aureus [7], 1 µg/mL (≈ 2.48 µM) against Haemophilus influenzae [3], 0.5 µg/mL (≈ 1.24 µM) with Streptococcus pyogenes and 32 µg/mL (≈ 79.3 µM) against Staphylococcus aureus [4].
With `CC1=C(C(=O)O)N2C(=O)C(NC(=O)C(N)c3csc4ccccc34)C2SC1` (configuration not stated), the MIC was 4 µg/mL (≈ 9.91 µM) against Haemophilus influenzae [5]; 4 µg/mL (≈ 9.91 µM) in [6]; 16 µg/mL (≈ 39.7 µM) in the assay on Staphylococcus aureus [1]; greater than 128 µg/mL against Streptococcus; 4 µg/mL (≈ 9.91 µM) in the assay with Streptococcus pneumoniae; 2 µg/mL (≈ 4.96 µM) with Staphylococcus aureus [2]. Further, the MIC came out at 8 µg/mL (≈ 19.8 µM) with Staphylococcus aureus [7], 2 µg/mL (≈ 4.96 µM) against Haemophilus influenzae [3] and 2 µg/mL (≈ 4.96 µM) with Streptococcus pyogenes.
Consider `CC1=C(C(=O)O)N2C(=O)[C@@H](NC(=O)[C@H](N)c3ccccc3)[C@H]2SC1` [CEPHALEXIN ANHYDROUS], for which the MIC with Haemophilus influenzae [5] was determined as 8 µg/mL (≈ 23 µM); in assay [6], 32 µg/mL (≈ 92.1 µM); against Streptococcus pneumoniae, 2 µg/mL (≈ 5.76 µM); against Staphylococcus aureus [2], 4 µg/mL (≈ 11.5 µM); in the assay on Haemophilus influenzae [3] it was 8 µg/mL (≈ 23 µM); in the assay on Streptococcus pyogenes, 0.5 µg/mL (≈ 1.44 µM).
